Test results published in paper PMC7327142 (Biomolecules & Therapeutics, 2020).

Legend:
HEK293 cells = conditions: for Cytotoxicity against HEK cells: 25 h

SMILES: O=C(CCCN1C(=O)c2ccccc2C1=O)Nc1ccc2ccccc2c1 [Compound 4, 4-(1,3-dioxo-1,3-dihydro-2H-isoindol-2-yl)-N-2-naphthylbutanamide]
- effect on growth and proliferation of HEK293 cells (HEK293 cells): decreased the cell numbers
- Cytotoxicity against HEK cells (HEK293 cells; 20 µM): 0.603

SMILES: O=C(c1cc(-c2ccc(F)cc2)n[nH]1)N1CCC(Cc2ccc(CO)cc2)C1 (stereo not shown) [Compound 22, {4-[(1-{[3-(4-fluorophenyl)-1H-pyrazol-5-yl]carbonyl}pyrrolidin-3-yl)methyl]phenyl}methanol]
- Cytotoxicity against HEK cells (HEK293 cells; 20 µM): 0.596

SMILES: COCc1ccc(C(=O)NCc2nc(-c3cccc(NC(=O)C4CCCN(C)C4)c3)oc2C)s1 (stereo not shown) [Compound 26, N-(3-{4-[({[5-(methoxymethyl)-2-thienyl]carbonyl}amino)methyl]-5-methyl-1,3-oxazol-2-yl}phenyl)-1-methyl-3-piperidinecarboxamide]
- Cytotoxicity against HEK cells (HEK293 cells; 20 µM): 0.587

SMILES: O=C(CCCc1ccccc1)Nc1cccc(N2CCC(NCc3cccnc3)CC2)c1 [Compound 33, 4-phenyl-N-(3-{4-[(3-pyridinylmethyl)amino]-1-piperidinyl}phenyl)butanamide]
- Cytotoxicity against HEK cells (HEK293 cells; 20 µM): 0.588

SMILES: CC(C)(O)C#Cc1ccc(C(=O)N2CCCC(CCC(=O)NCc3ccccc3F)C2)cc1 (stereo not shown) [Compound 35, N-(2-fluorobenzyl)-3-{1-[4-(3-hydroxy-3-methyl-1-butyn-1-yl)benzoyl]-3-piperidinyl}propanamide]
- Cytotoxicity against HEK cells (HEK293 cells; 20 µM): 0.580

SMILES: Cn1cc(C(=O)N2CCN(CCOc3ccc(CN4CCC(Cc5ccccc5)CC4)cc3)CC2)c(=O)c2ccccc21 [Compound 58, 3-{[4-(2-{4-[(4-benzyl-1-piperidinyl)methyl]phenoxy}ethyl)-1-piperazinyl]carbonyl}-1-methyl-4(1H)-quinolinone]
- Cytotoxicity against HEK cells (HEK293 cells; 20 µM): 0.602

SMILES: CN(Cc1ccc(OCCN2CCN(C(=O)C3Cc4ccccc4O3)CC2)cc1)Cc1ccc2ncccc2c1 (stereo not shown) [Compound 60, (4-{2-[4-(2,3-dihydro-1-benzofuran-2-ylcarbonyl)-1-piperazinyl]ethoxy}benzyl)methyl(6-quinolinylmethyl)amine]
- Cytotoxicity against HEK cells (HEK293 cells; 20 µM): 0.572

SMILES: O=C(Nc1cccc(N2CCC(NCCC(c3ccc(F)cc3)c3ccco3)CC2)c1)c1ccncc1 (stereo not shown) [Compound 61, N-[3-(4-{[3-(4-fluorophenyl)-3-(2-furyl)propyl]amino}-1-piperidinyl)phenyl]isonicotinamide]
- Cytotoxicity against HEK cells (HEK293 cells; 20 µM): 0.173

SMILES: COC(=O)c1c(NC(=O)C2CCCO2)c2cc(NCc3cccc(OCCO)c3)cnc2n1CCc1ccccc1 (stereo not shown) [Compound 69, methyl 5-{[3-(2-hydroxyethoxy)benzyl]amino}-1-(2-phenylethyl)-3-[(tetrahydro-2-furanylcarbonyl)amino]-1H-pyrrolo[2,3-b]pyridine-2-carboxylate]
- effect on growth and proliferation of HEK293 cells (HEK293 cells): decreased the cell numbers
- morphological changes in HEK293 cells (HEK293 cells; 20 µM): slightly triggered cellular shrinking
- Cytotoxicity against HEK cells (HEK293 cells; 20 µM): 0.529

SMILES: O=C(C1CCCN(c2cccc3c2C(=O)N(Cc2ccsc2)C3=O)C1)N1CCC(O)(c2cccc(C(F)(F)F)c2)CC1 (stereo not shown) [Compound 73, 4-[3-({4-hydroxy-4-[3-(trifluoromethyl)phenyl]-1-piperidinyl}carbonyl)-1-piperidinyl]-2-(3-thienylmethyl)-1H-isoindole-1,3(2H)-dione]
- Cytotoxicity against HEK cells (HEK293 cells; 20 µM): 0.602
- cytotoxicity in Vero cells (Vero cells): no cytotoxicity
- growth of Vero cells (Vero cells): reduced the growth

SMILES: O=C(NCCS(=O)(=O)N1CCc2ccccc2C1)C1CC(=O)N(c2ccc(Cl)cc2)C1 (stereo not shown) [Compound 74, 1-(4-chlorophenyl)-N-(2-((3,4-dihydroisoquinolin-2(1H)-yl)sulfonyl)ethyl)-5-oxopyrrolidine-3-carboxamide]
- Cytotoxicity against HEK cells (HEK293 cells; 20 µM): 0.568
- cytotoxicity in Vero cells (Vero cells): no cytotoxicity
- growth of Vero cells (Vero cells): reduced the growth

SMILES: Cc1ccc(N2CC(C(=O)NCCS(=O)(=O)N3CCc4ccccc4C3)CC2=O)cc1 (stereo not shown) [Compound 75, N-(2-((3,4-dihydroisoquinolin-2(1H)-yl)sulfonyl)ethyl)-5-oxo-1-(p-tolyl)pyrrolidine-3-carboxamide]
- Cytotoxicity against HEK cells (HEK293 cells; 20 µM): 0.604

SMILES: Cc1ccc(N2CC(C(=O)NCCS(=O)(=O)N3CCc4ccccc4C3)CC2=O)cc1C (stereo not shown) [Compound 76, N-(2-((3,4-dihydroisoquinolin-2(1H)-yl)sulfonyl)ethyl)-1-(3,4-dimethylphenyl)-5-oxopyrrolidine-3-carboxamide]
- Cytotoxicity against HEK cells (HEK293 cells; 20 µM): 0.520

SMILES: COc1cccc(N2CC(C(=O)NCCS(=O)(=O)N3CCc4ccccc4C3)CC2=O)c1 (stereo not shown) [Compound 77, N-(2-((3,4-dihydroisoquinolin-2(1H)-yl)sulfonyl)ethyl)-1-(3-methoxyphenyl)-5-oxopyrrolidine-3-carboxamide]
- Cytotoxicity against HEK cells (HEK293 cells; 20 µM): 0.578

SMILES: O=C(NCCS(=O)(=O)N1CCN(c2ccc(F)cc2)CC1)C1CC(=O)N(c2ccccc2)C1 (stereo not shown) [Compound 78, N-(2-((4-(4-fluorophenyl)piperazin-1-yl)sulfonyl)ethyl)-5-oxo-1-phenylpyrrolidine-3-carboxamide]
- Cytotoxicity against HEK cells (HEK293 cells; 20 µM): 0.574
